Data published in patent publication US5969094A, “Anti-paramyxovirus screening method and vaccine” (Emory University, priority 1996, dated 1999).
Read-outs that look alike come from different tables or passages of the source.

Experiments:
HIV-1 = conditions: Wild et al. 1994; cited from earlier work
PI2F + PI2HN = biological target: T1, PI2F + PI2HN (Human parainfluenza 2 virus, UniProt P25467); format: cell-based, parainfluenza virus type 2
T1 construct: expressed in transfected cells; host or cells: HeLa-T4 cells infected with vTF7.3
T1 sequence (P25467 107-551 limits assumed): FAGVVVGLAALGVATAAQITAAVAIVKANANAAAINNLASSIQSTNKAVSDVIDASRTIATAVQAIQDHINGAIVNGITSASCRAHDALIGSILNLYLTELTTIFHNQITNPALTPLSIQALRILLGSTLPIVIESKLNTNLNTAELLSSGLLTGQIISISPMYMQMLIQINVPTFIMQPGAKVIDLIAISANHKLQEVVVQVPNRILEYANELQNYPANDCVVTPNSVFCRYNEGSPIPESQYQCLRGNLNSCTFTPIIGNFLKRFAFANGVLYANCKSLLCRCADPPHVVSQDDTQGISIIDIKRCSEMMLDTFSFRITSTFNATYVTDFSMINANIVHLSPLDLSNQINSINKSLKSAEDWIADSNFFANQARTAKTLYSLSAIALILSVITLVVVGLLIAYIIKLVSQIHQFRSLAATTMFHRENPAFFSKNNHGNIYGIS
T1 sequence (P25467 24-106 partner limits assumed): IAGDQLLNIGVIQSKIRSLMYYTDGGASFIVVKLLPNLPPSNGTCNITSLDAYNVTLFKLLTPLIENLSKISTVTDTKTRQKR

PI2 virus [1] = assay: Inhibition of virus production (released virus titer) in HeLa-T4 cells, PI2; format: cell-based, parainfluenza virus type 2
PI2 virus [2] = format: cell-based, parainfluenza virus type 2; conditions: for syncytium formation / inhibition of cell fusion in PI2 infected HeLa-T4 cells (in words): incubated with peptide, concentration not given; for inhibition of PI2 virus-induced cell fusion: 24 h post infection, m.o.i. 0.1
PI2 virus [3] = assay: Surface immunofluorescence of PI2 antigen on infected HeLa-T4 cells (viral spread); format: cell-based, parainfluenza virus type 2; conditions: low m.o.i. infection, incubated with peptide
Procedure: Surface immunofluorescence. Indirect immunofluorescence was performed as described by Paterson et al. 1989. In general, HeLa-T4 cells were grown on glass coverslips in 24-well plates and infected with wild-type PI2 virus as described above. At indicated times post infection, cells were washed with ice-cold PBS three times before being fixed with 1% paraformaldehyde in PBS. Rabbit anti-PI2 antibody was added onto cell monolayers, and cells were then incubated at 4° C. for 30 min. Cells were washed with ice-cold PBS three times, and then goat anti-rabbit immunoglobulin G fluorescein-conjugated antibody (Southern Biotechnology Associates, Inc., Birmingham, Ala.) was added and was then incubated at 4° C. for 30 min. Cell surface fluorescence was examined by fluorescence microscopy with a Nikon Optiphot microscope.
To further confirm that the F peptides inhibit viral spread, we examined the distribution of infected cells by surface immunofluorescence at intervals post low m.o.i. infection in the presence or absence of F peptides.

PI2 virus [4] = assay: Inhibition of plaque formation on Vero cells (viral entry), PI2; format: cell-based, parainfluenza virus type 2
Procedure: (§1) Inhibition of plaque formation. A series of 2-fold dilutions of F peptides together with appropriately diluted PI2 or PI3 virus were added to monolayers of Vero cells. After 1 h incubation at 37° C., the inoculum was removed and overlaid with 2% white agar mixed at 1:1 ratio with 2XDMEM containing 2% FBS. Three days after overlying, red agar mixed at a 1:1 ratio with 2XDMEM containing 2% FBS was overlaid to stain the cells. Plaque numbers were counted one day after neutral red staining and recorded. The Reed-Muench method of estimating 50% endpoint [Welkos, S. et al., (1994) Methods in Enzymology. 235:29-39] was used to calculate the F peptide 50% effective concentration (EC50) value.
(§2) F peptides inhibit viral spread. To determine whether the F peptide interferes with the viral entry process, a plaque assay was performed by inoculating cells with virus and peptide together at 37° C. for 1 h, and then overlaying with agar without the addition of peptide. At 10^4 dilution of the PI2 virus stock, 80 μM of the 2F1B34 peptide (SEQ ID NO:21) caused an 80% reduction in number of plaques. Similarly, at 10^5 dilution of the PI3 virus stock, 100 μM of the 3F1B35 peptide (SEQ ID NO:23) caused a 70% reduction in number of plaques. Furthermore, the reduction in the number of viral plaques was correlated with increasing concentration of peptide incubated with the virus. […]

PI2 virus [5] = assay: Plaque size reduction on Vero cells, peptide in agar overlay; format: cell-based, parainfluenza virus type 2; conditions: 80 μM peptide in agar overlay after 1 h absorption; control cells 3 mm; three days
Procedure: FIGS. 11A and 11B Plaque size reduction by F peptides. Plaque assay was performed on the Vero cells using PI2 virus. After 1 h absorption at 37° C., inoculum was removed and cells overlaid with a 1:1 mixture of 2% white agar with 2XDMEM containing 2% FBS (A) without addition of F peptide, or (B) with addition of 80 μM of 2F1B34 in the overlay agar. Three days after overlaying, the agar was removed and the monolayer of cells was stained with crystal violet.
As another indication of a reduction in spread of virus under condition of multiple cycle replication, the effect of the peptides on plaque size was determined.

PI3 virus [6] = format: cell-based, human parainfluenza type 3 virus
PI3F + PI3HN = PI3F + PI3HN (Human parainfluenza 3 virus, UniProt P06828)
PI3 virus [7] = assay: Inhibition of plaque formation on Vero cells (viral entry), PI3; format: cell-based, human parainfluenza type 3 virus; conditions: 100 μM peptide with virus 1 h at 37° C.; 10^5 dilution of the PI3 virus stock; overlay without peptide
Procedure: as §1, §2

[8] = biological target: PI2 F plus PI2 HN (viral glycoproteins of PI2 virus; HN:F) (parainfluenza type 2 (PI2) virus)
[9] = biological target: PI2 F plus PI2 HN (viral glycoproteins of PI2 virus; HN:F) (parainfluenza type 2 (PI2) virus); remark: listed apart in the source
[10] = biological target: PI2 F plus PI2 HN (viral glycoproteins of PI2 virus; HN:F) (parainfluenza type 2 (PI2) virus); remark: listed apart in the source

Chain of PI3F + PI3HN (P06828 110-539): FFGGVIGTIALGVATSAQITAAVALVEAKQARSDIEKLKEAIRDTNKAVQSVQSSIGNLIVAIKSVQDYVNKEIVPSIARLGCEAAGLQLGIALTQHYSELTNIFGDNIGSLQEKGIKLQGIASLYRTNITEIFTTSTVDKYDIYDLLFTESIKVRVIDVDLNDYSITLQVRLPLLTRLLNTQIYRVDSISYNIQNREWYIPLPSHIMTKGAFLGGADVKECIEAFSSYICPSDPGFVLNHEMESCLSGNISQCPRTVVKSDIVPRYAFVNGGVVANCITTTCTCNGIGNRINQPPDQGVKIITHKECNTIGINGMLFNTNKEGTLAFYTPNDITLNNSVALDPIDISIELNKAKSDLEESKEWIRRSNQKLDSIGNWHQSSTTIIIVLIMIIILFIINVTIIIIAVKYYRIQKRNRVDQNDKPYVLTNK
Chain of PI3F + PI3HN (P06828 19-109): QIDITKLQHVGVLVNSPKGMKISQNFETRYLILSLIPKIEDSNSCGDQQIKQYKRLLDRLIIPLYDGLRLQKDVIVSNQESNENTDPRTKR

## enfuvirtide
HIV-1
  potency against cell-cell fusion versus infection by cell-free virus: more potent inhibitor of cell-cell fusion than of infection by cell-free virus

## 2F1B21: 21 a.a. PI2F peptide from the beginning of the transmembrane domain to a predicted glycosylation site in the heptad repeat B region (KSAEDWIADSNFFANQARTAK)
PI2F + PI2HN
  inhibition of cell fusion by vaccinia-expressed PI2 F and HN (in words): only partially inhibited cell fusion
PI2 virus [1]; compared with 2F1B34
  effect on multiple cycle growth, PI2 (in words): not as dramatic as
PI2 virus [2]
  inhibition of PI2 cell fusion at high peptide concentration: could only partially inhibit cell fusion
  syncytium formation / inhibition of cell fusion in PI2 infected HeLa-T4 cells (in words): dramatically decreased
PI2 virus [2]; peptide 200 μM or more
  inhibition of PI2 virus-induced cell fusion: cell fusion was reduced remarkably

## 2F1B34: PI2F peptide from the beginning of the transmembrane domain to include the entire heptad repeat B region (DLSNQINSINKSLKSAEDWIADSNFFANQARTAK)
PI2F + PI2HN; 18 hr
  inhibition of cell fusion induced by coexpression of PI2 F plus PI2 HN: completely inhibit
PI2 virus [3]
  cells expressing PI2 antigen on the surface at 18 h: only few cells were expressing PI2 antigen
  numbers of cells showing PI2 antigen expression on the surface at 24 h and 48 hpi: no increase in numbers of cells showing antigen expression
PI2 virus [4]; 80 μM peptide with virus 1 h at 37° C., 10^4 dilution of the PI2 virus stock, overlay without peptide
  reduction in number of plaques, PI2: 80%
PI2 virus [4]; Vero cells, Reed-Muench method, read-out: 50% effective concentration (EC50), plaque number, PI2
  EC50: 53.8 µM
PI2 virus [5]
  plaque size (diameter): 1.5 mm
PI2 virus [1]; 48 h post infection, m.o.i. 0.1, 80 μM peptide (FIG. 10), culture supernatant
  decrease in the viral titer, PI2: 15 fold
PI2 virus [2]
  syncytium formation / inhibition of cell fusion in PI2 infected HeLa-T4 cells (in words): no syncytia were seen
PI2 virus [2]; peptide concentration as low as 80 μM
  inhibition of PI2 virus-induced cell fusion: completely inhibited

## 3F1B35: 35 a.a. PI3F peptide from the beginning of the transmembrane domain to include the entire heptad repeat B (ELNKAKSDLEESKEWIRRSNQKLDSIGNWHQSSTT)
PI3 virus [6]; incubated with peptide, concentration not given
  syncytium formation / inhibition of cell fusion in PI3 infected HeLa-T4 cells (in words): no syncytia were seen
PI3 virus [6]; peptide 100 μM, 24 h post infection
  inhibition of PI3 virus-induced cell fusion: completely inhibited
PI3F + PI3HN
  inhibition of fusion by PI3 F plus PI3 HN: can inhibit
PI3 virus [7]
  reduction in number of plaques, PI3: 70%

B1: peptide 2F1B34 (peptide)
peptide: Ac-DLSNQINSINKSLKSAEDWIADSNFFANQARTAK-NH2
[8]
  viral titer in the culture supernatant 48 h post infection (plaque assay) (fold decrease): 15
[9]
  plaque size (peptide in the agar overlay after virus absorption, Vero cells): 1.5 mm
[10]
  50% effective concentration (EC50) of inhibition of virus infection efficiency, plaque assay, Reed-Muench method: 53.8 µM
